Results from article PMC3523097 (Journal of medicinal chemistry, 2012).
Where “and” joins values, the source holds several entries; their conditions need not be identical. Identical values can stand only once. Entries after “also recorded” stand apart in the source; their conditions may differ. Like-named read-outs stand apart in the source and are kept apart here. Non-standard residues stand in square brackets, D forms with d. Residues, ends and D or L forms follow the SMILES beside them. Dmt = Cc1cc(O)cc(C)c1C[C@H](N)C(=O)O; dCit = NC(=O)NCCC[C@@H](N)C(=O)O; Nle = CCCC[C@H](N)C(=O)O

Experiments:
[1] = system: CD-1 mice; test: Antinociception after s.c. administration, radiant heat tail-flick test; assay type: in vivo; settings: mouse tail-flick test; for ED50 (95% confidence limits): at the time of peak effect
[2] = system: mouse tissues (spleen, liver, lungs, heart, kidneys, serum); test: In vivo tissue biodistribution of [125I]-peptides; settings: for Serum levels: 15 min after administration, rank in words
[3] = system: CD-1 mice; test: Antinociception after i.p. administration, 55 °C tail withdrawal; assay type: in vivo, mouse; settings: for Time of maximum antinociceptive activity post i.p. injection: mice; for Antinociceptive effect after i.p. injection, in words: Figure 3; for Antinociceptive activity, times higher than the antinociception of morphine: at the plateau decline phase
[4] = incubated in sheep blood; cited from earlier work
[5] = system: mouse brain (blood-brain barrier); test: Blood-to-brain influx, multiple time regression of [125I]-peptides; settings: for Vbr (brain distribution volume): [125I]-labelled, CD-1 mice, mean ± SEM
[6] = target: T1, MOR (Rattus norvegicus, UniProt P33535); test: MOR receptor binding, displacement of [3H]DAMGO from rat brain membranes; settings: ratio of MOR/DOR/KOR Ki
[7] = system: DOR (mouse vas deferens, MVD); test: Mouse vas deferens; assay type: biochemical
[8] = system: MOR (guinea pig ileum, GPI); test: Guinea pig ileum; assay type: biochemical
[9] = target: T1, MOR; settings: ratio of MOR/DOR/KOR Ki; cited from earlier work
[10] = system: MOR (guinea pig ileum, GPI); settings: read-out: GPI (μ) IC50; cited from earlier work
[11] = system: DOR (mouse vas deferens, MVD); settings: read-out: MVD (δ) IC50; cited from earlier work
[12] = cited from earlier work

T1 sequence (P33535 whole entry): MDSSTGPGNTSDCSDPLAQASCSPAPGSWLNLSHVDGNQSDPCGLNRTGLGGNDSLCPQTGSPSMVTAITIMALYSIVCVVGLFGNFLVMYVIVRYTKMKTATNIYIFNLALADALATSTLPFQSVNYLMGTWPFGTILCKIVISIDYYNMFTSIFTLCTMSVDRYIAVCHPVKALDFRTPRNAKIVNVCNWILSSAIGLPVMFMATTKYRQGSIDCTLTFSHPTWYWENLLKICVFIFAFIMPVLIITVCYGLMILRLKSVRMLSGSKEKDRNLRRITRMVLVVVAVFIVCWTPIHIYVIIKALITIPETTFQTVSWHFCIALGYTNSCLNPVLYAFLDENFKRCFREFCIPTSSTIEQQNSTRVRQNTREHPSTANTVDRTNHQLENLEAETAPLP

Compound: CN1CC[C@]23c4c5ccc(O)c4O[C@H]2[C@@H](O)C=C[C@H]3[C@H]1C5 [Morphine, reference compound]
- Relative potency to Morphine ([1]; from ED50): 1

Compound: Cc1cc(O)cc(C)c1C[C@H](N)C(=O)N[C@H](CCCNC(=N)N)C(=O)N[C@@H](Cc1ccccc1)C(=O)N[C@@H](CCCCN)C(N)=O [Peptide 1, H-Dmt-D-Arg-Phe-Lys-NH2, reference compound]
- Serum levels [2]: highest
- Time of maximum antinociceptive activity post i.p. injection [3]: 60 min
- Duration of antinociceptive action [1]: 6 to 7 h
- Time of peak effect [1]: 2 h
- ED50 (95% confidence limits) [1]: 0.15 (0.07-0.32) μmol/kg
- Duration of antinociceptive action ([1]; listed as [Dmt^1]-DALDA): > 7 h
- t1/2 in sheep blood [4]: 108 min
- Vbr (brain distribution volume) [5]: 19.25 ± 1.02 µL/g

Compound: CCCC[C@H](NC(=O)[C@H](Cc1ccccc1)NC(=O)[C@@H](CCCN=C(N)N)NC(=O)[C@@H](N)Cc1c(C)cc(O)cc1C)C(N)=O [Peptide 9, H-Dmt-D-Arg-Phe-Nle-NH2] (H-[Dmt][dR]F[Nle]-NH2)
- Serum levels [2]: lowest
- Vbr (brain distribution volume) [5]: 27.43 ± 4.80 µL/g

Compound: CCCC[C@H](NC(=O)[C@H](Cc1ccccc1)NC(=O)[C@@H](CCCNC(=N)N)NC(=O)[C@@H](N)Cc1c(C)cc(O)cc1C)C(N)=O [Peptide 9, H-Dmt-D-Arg-Phe-Nle-NH2] (H-[Dmt][dR]F[Nle]-NH2)
- Antinociceptive effect after i.p. injection, in words [3]: relatively low antinociceptive activity
- Antinociceptive effect after s.c. administration, in words [1]: no dose-related antinociception; also recorded: failed to reach a 50% effect after s.c. administration of 6 μmol/kg
- ED50 (95% confidence limits) [1]: >6 µmol/kg
- Ki ratio μ/δ/κ [6]: 1/66/70

Compound: Cc1cc(O)cc(C)c1C[C@H](N)C(=O)N[C@H](CCCNC(N)=O)C(=O)N[C@@H](Cc1ccccc1)C(=O)N[C@@H](CCCCN)C(N)=O [Peptide 10, H-Dmt-D-Cit-Phe-Lys-NH2]
- Serum levels [2]: intermediate
- Time of maximum antinociceptive activity post i.p. injection [3]: 45 min
- Duration of antinociceptive action [1]: 2 to 3 h
- Time of peak effect [1]: 1 h
- ED50 (95% confidence limits) [1]: 0.23 (0.10-0.55) μmol/kg
- Vbr (brain distribution volume) [5]: 27.12 ± 3.76 µL/g
- Ki ratio μ/δ/κ [6]: 1/88/37

Compound: CCCC[C@H](NC(=O)[C@H](Cc1ccccc1)NC(=O)[C@@H](CCCNC(N)=O)NC(=O)[C@@H](N)Cc1c(C)cc(O)cc1C)C(N)=O [Peptide 11, H-Dmt-D-Cit-Phe-Nle-NH2] (H-[Dmt][dCit]F[Nle]-NH2)
- Ki ratio μ/δ/κ [6]: 1/5/125

Compound: Cc1cc(O)cc(C)c1C[C@H](N)C(=O)N[C@H](CCCNC(=N)N)C(=O)N[C@@H](Cc1ccccc1)C(=O)N(C)[C@@H](CCCCN)C(N)=O [Peptide 12, H-Dmt-D-Arg-Phe-NMeLys-NH2]
- Serum levels [2]: intermediate
- Antinociceptive activity, times higher than the antinociception of morphine [3]: 13 - 15
- Time of maximum antinociceptive activity post i.p. injection [3]: 60 to 90 min
- Duration of antinociceptive action [1]: > 7 h
- Time of peak effect [1]: 1 to 4 h and 2 h
- ED50 (95% confidence limits) [1]: 0.13 (0.06-0.30) μmol/kg
- Vbr (brain distribution volume) [5]: 21.99 ± 2.81 µL/g
- Ki ratio μ/δ/κ [6]: 1/1190/216

Compound: CCCC[C@@H](C(N)=O)N(C)C(=O)[C@H](Cc1ccccc1)NC(=O)[C@@H](CCCNC(=N)N)NC(=O)[C@@H](N)Cc1c(C)cc(O)cc1C [Peptide 13, H-Dmt-D-Arg-Phe-NMeNle-NH2]
- Ki ratio μ/δ/κ [6]: 1/62/55

Compound: Cc1cc(O)cc(C)c1C[C@H](N)C(=O)N[C@H](CCCNC(N)=O)C(=O)N[C@@H](Cc1ccccc1)C(=O)N(C)[C@@H](CCCCN)C(N)=O [Peptide 14, H-Dmt-D-Cit-Phe-NMeLys-NH2]
- Serum levels [2]: intermediate
- Antinociceptive activity, times higher than the antinociception of morphine [3]: 13 - 15
- Time of maximum antinociceptive activity post i.p. injection [3]: 60 to 90 min
- Duration of antinociceptive action [1]: 2 to 3 h
- Time of peak effect [1]: 1 h
- ED50 (95% confidence limits) [1]: 0.16 (0.07-0.36) μmol/kg
- Vbr (brain distribution volume) [5]: 17.13 ± 2.36 µL/g
- Ki ratio μ/δ/κ [6]: 1/42/12

Compound: Cc1cc(O)cc(C)c1C[C@H](N)C(=O)N[C@H](CCCNC(=N)N)C(=O)N[C@H]1Cc2ccccc2CN([C@@H](CCCCN)C(N)=O)C1=O [Peptide 16, H-Dmt-D-Arg-Aba-Lys-NH2]
- MVD (δ) IC25 ([7]; IC25 given instead of IC50): 64 (IC25) nM

Compound: CCCC[C@@H](C(N)=O)N1Cc2ccccc2C[C@H](NC(=O)[C@@H](CCCNC(=N)N)NC(=O)[C@@H](N)Cc2c(C)cc(O)cc2C)C1=O [Peptide 17, H-Dmt-D-Arg-Aba-Nle-NH2]
- Ki ratio μ/δ/κ [6]: 1/17/3

Compound: CCCC[C@@H](C(N)=O)N1Cc2ccccc2C[C@H](NC(=O)[C@@H](CCCNC(N)=O)NC(=O)[C@@H](N)Cc2c(C)cc(O)cc2C)C1=O [Peptide 19, H-Dmt-D-Cit-Aba-Nle-NH2]
- GPI (μ) IC35 ([8]; IC35 given instead of IC50): 0.78 (IC35) nM
- MOR functional profile ([8]; in words): MOR partial agonist
- DOR functional profile ([7]; in words): DOR full agonist
- Ki ratio μ/δ/κ [6]: 1/3/12

Compound: Cc1cc(O)cc(C)c1C[C@H](N)C(=O)N[C@H](CCCNC(=N)N)C(=O)N[C@H]1Cc2ccccc2CN(CC(N)=O)C1=O [Peptide 20, H-Dmt-D-Arg-Aba-Gly-NH2, reference compound]
- Serum levels [2]: intermediate
- Tissue distribution (percentage of mass-corrected injected dose), in words ([2]; [125I]-peptide, mice, Figure 2): higher kidney uptake
- Antinociceptive effect after i.p. injection, in words [3]: slow and shallow antinociceptive response
- Duration of antinociceptive action [1]: 6 to 7 h
- Time of peak effect [1]: 1 h
- ED50 (95% confidence limits) [1]: 0.47 (0.18-1.2) μmol/kg
- Ki ratio μ/δ/κ [9]: 1/4/787
- IC50 [10]: 0.32 nM
- IC50 [11]: 0.42 nM
- Vbr (brain distribution volume) [5]: 24.01 ± 3.41 µL/g

Compound: C[C@@H](NC(=O)[C@@H](N)Cc1ccc(O)cc1)C(=O)N[C@@H](Cc1ccccc1)C(=O)NCC(=O)N[C@@H](Cc1ccc(O)cc1)C(=O)N1CCC[C@H]1C(=O)N[C@@H](CO)C(N)=O [dermorphin, Tyr-D-Ala-Phe-Gly-Tyr-Pro-Ser-NH2, reference compound]
- Antinociceptive effect after i.p. injection, in words [3]: inability of dermorphin to induce a significant antinociceptive effect
- mean influx transfer constant (mean Kin) ([5]; I-125 labelled control, over 15 minutes for dermorphin): 0.173 ± 0.137 µL/g/min

Compound: endomorphin-1
- t1/2 in mouse plasma [12]: 4 to 7 min

Compound: endomorphin-2
- t1/2 in mouse plasma [12]: 4 to 7 min
